According to BigSolDB 2.1:

OC(Cn1cncn1)(Cn1cncn1)c1ccc(F)cc1F
solubility (mole fraction)
Details | in 1,4-dioxane | in THF | in chloroform | in ethanol | in methanol | in n-butanol | in n-propanol
298.15 K | 0.0124 | 0.0121 | 0.0135 | 0.011 | 0.0141 | 0.0058 | 0.0115
303.15 K | 0.0165 | 0.0155 | 0.0136 | 0.0147 | 0.0193 | 0.0066 | 0.0127
308.15 K | 0.0194 | 0.0197 | 0.0139 | 0.017 | 0.0286 | 0.008 | 0.0148
313.15 K | 0.0219 | 0.0225 | 0.0148 | 0.0231 | 0.0422 | 0.0102 | 0.0175
318.15 K | 0.0257 | 0.0273 | 0.016 | 0.0284 | 0.06 | 0.0132 | 0.021
323.15 K | 0.0304 | 0.0331 | 0.0181 | 0.0354 | 0.088 | 0.016 | 0.0278
